Experimental data reported in PubChem BioAssay AID248 (DTP/NCI, 2004).
“And” between values parts separate entries of the source, which are not always exact repeats. Equal values may be shown once. Toxic doses and inconclusive results are not listed. Cut-off read from the data, not from the text of the source: active = T/C of 150% or more; inactive = T/C below 125%. Square brackets hold non-standard residues; d marks the D form. Peptide text beside a SMILES is read from it. ξ: configuration not given here. ξF = NC(Cc1ccccc1)C(=O)O

System: L1210 leukemia ip in BDF1 mice, survival T/C
Assay: NCI In Vivo Anticancer Drug Screen. Data for tumor model L1210 Leukemia (intraperitoneal) in B6D2F1 (BDF1) mice
Conditions: endpoint: mean survival time, higher = longer survival
How it was run: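 Antitumor effect is assessed in tumor-bearing animals. Survival in the compound arm is compared with a vehicle-dosed control arm and expressed as their quotient.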

[1] = dose: 100.0 mg/kg/injection, schedule: Q01DX009 (ip), vehicle: gum acacia
[2] = dose: 200.0 mg/kg/injection, schedule: Q01DX009 (ip), vehicle: gum acacia
[3] = dose: 100.0 mg/kg/injection, schedule: Q01DX009 (ip), vehicle: Klucel (hydroxypropylcellulose) (HPC)
[4] = dose: 200.0 mg/kg/injection, schedule: Q01DX009 (ip), vehicle: Klucel (hydroxypropylcellulose) (HPC)
[5] = dose: 400.0 mg/kg/injection, schedule: Q01DX009 (ip), vehicle: Klucel (hydroxypropylcellulose) (HPC)
[6] = dose: 100.0 mg/kg/injection, schedule: Q04DX003 (ip), vehicle: Klucel (hydroxypropylcellulose) (HPC)
[7] = dose: 200.0 mg/kg/injection, schedule: Q04DX003 (ip), vehicle: Klucel (hydroxypropylcellulose) (HPC)
[8] = dose: 100.0 mg/kg/injection, schedule: Q04DX003 (ip), vehicle: saline with Tween-80
[9] = dose: 200.0 mg/kg/injection, schedule: Q04DX003 (ip), vehicle: saline with Tween-80
[10] = dose: 400.0 mg/kg/injection, schedule: Q04DX003 (ip), vehicle: saline with Tween-80
[11] = dose: 100.0 mg/kg/injection, schedule: Q01DX009 (ip), vehicle: saline with Tween-80
[12] = dose: 200.0 mg/kg/injection, schedule: Q01DX009 (ip), vehicle: saline with Tween-80
[13] = dose: 400.0 mg/kg/injection, schedule: Q01DX009 (ip), vehicle: saline with Tween-80
[14] = dose: 100.0 mg/kg/injection, schedule: Q01DX001 (ip), vehicle: saline
[15] = dose: 200.0 mg/kg/injection, schedule: Q01DX001 (ip), vehicle: saline
[16] = dose: 400.0 mg/kg/injection, schedule: Q01DX001 (ip), vehicle: saline

Measured: T/C

Cc1ccc(C(Br)S(=O)(=O)c2ccccc2)cc1 (stereo not drawn)
inactive: dose: 100.0 mg/kg/injection, schedule: Q04DX002 (ip), vehicle: Klucel (hydroxypropylcellulose) (HPC) 97 % of control | dose: 200.0 mg/kg/injection, schedule: Q04DX002 (ip), vehicle: Klucel (hydroxypropylcellulose) (HPC) 86 % of control | dose: 400.0 mg/kg/injection, schedule: Q04DX002 (ip), vehicle: Klucel (hydroxypropylcellulose) (HPC) 111 % of control

C=CC1CN2CCC1CC2C(O)c1ccnc2ccccc12 (stereo not drawn)
inactive: [1] 107 % of control | [2] 105 % of control

O=C1CCOc2ccc(Cl)cc21
inactive: [3] 95 % of control | [4] 101 % of control | [5] 106 % of control

NC(Cc1ccccc1)C(=O)NCC(=O)O (stereo not drawn) (H-[ξF]-Gly-OH)
inactive: dose: 100.0 mg/kg/injection, schedule: Q01DX009 (ip), vehicle: saline 105 % of control | dose: 100.0 mg/kg/injection, schedule: Q04DX003 (ip), vehicle: saline 98 % of control | dose: 200.0 mg/kg/injection, schedule: Q01DX009 (ip), vehicle: saline 105 % of control | dose: 200.0 mg/kg/injection, schedule: Q04DX003 (ip), vehicle: saline 97 % of control | dose: 400.0 mg/kg/injection, schedule: Q01DX009 (ip), vehicle: saline 102 % of control | dose: 400.0 mg/kg/injection, schedule: Q04DX003 (ip), vehicle: saline 97 % of control

C(=N\Nc1ccccc1)/c1cc2c3c(c1)CCCN3CCC2
inactive: [1] 94 % of control | [2] 91 % of control | dose: 400.0 mg/kg/injection, schedule: Q01DX009 (ip), vehicle: gum acacia 94 % of control

O=C(OC1(c2ccccc2)CC2CC1c1ccccc12)c1ccc([N+](=O)[O-])cc1 (stereo not drawn)
inactive: dose: 50.0 mg/kg/injection, schedule: Q01DX001 (ip), vehicle: carboxymethylcellulose (CMC) 88 % of control | dose: 100.0 mg/kg/injection, schedule: Q01DX001 (ip), vehicle: carboxymethylcellulose (CMC) 95 % of control | dose: 200.0 mg/kg/injection, schedule: Q01DX001 (ip), vehicle: carboxymethylcellulose (CMC) 95 % of control

COc1ccc(C)cc1NC(=O)Nc1ccccc1F
inactive: [3] 97 % of control and 91 % of control | [4] 89 % of control | [5] 92 % of control and 101 % of control

Cc1n(CCBr)c([N+](=O)[O-])c[n+]1C1N=C(c2ccccc2)c2cc(Cl)ccc2NC1=O (stereo not drawn)
inactive: [6] 101 % of control | [7] 94 % of control

O=C1c2cc([N+](=O)[O-])ccc2-c2c1cccc2[N+](=O)[O-]
inactive: dose: 18.75 mg/kg/injection, schedule: Q01DX001 (ip), vehicle: Klucel (hydroxypropylcellulose) (HPC) 96 % of control | dose: 37.5 mg/kg/injection, schedule: Q01DX001 (ip), vehicle: Klucel (hydroxypropylcellulose) (HPC) 91 % of control | dose: 75.0 mg/kg/injection, schedule: Q01DX001 (ip), vehicle: Klucel (hydroxypropylcellulose) (HPC) 96 % of control | dose: 150.0 mg/kg/injection, schedule: Q01DX001 (ip), vehicle: Klucel (hydroxypropylcellulose) (HPC) 98 % of control | dose: 300.0 mg/kg/injection, schedule: Q01DX001 (ip), vehicle: Klucel (hydroxypropylcellulose) (HPC) 87 % of control

c1ccc2c(c1)ccc1c2ccc2cccc[n+]21
inactive: dose: 1.25 mg/kg/injection, schedule: Q01DX001 (ip), vehicle: saline 97 % of control | dose: 2.5 mg/kg/injection, schedule: Q01DX001 (ip), vehicle: saline 97 % of control | dose: 5.0 mg/kg/injection, schedule: Q01DX001 (ip), vehicle: saline 103 % of control | dose: 5.0 mg/kg/injection, schedule: Q01DX015 (ip), vehicle: saline 103 % of control | dose: 10.0 mg/kg/injection, schedule: Q01DX001 (ip), vehicle: saline 107 % of control

NC(=O)c1cc([N+](=O)[O-])ccc1Cl
inactive: [8] 97 % of control | [9] 97 % of control | [10] 101 % of control

CC(C)(C)/[N+]([O-])=[N+](\[O-])C(C)(C)C (tested in a mixture with another compound)
inactive: [11] 98 % of control | [6] 100 % of control | [12] 105 % of control | [7] 96 % of control | [13] 90 % of control

c1ccc(-c2oc(-c3ccccc3)c3c2CCCC3)cc1
inactive: [3] 100 % of control | [4] 98 % of control | [5] 98 % of control

CC(=O)N=c1ccccn1O
inactive: dose: 100.0 mg/kg/injection, schedule: Q04DX002 (ip), vehicle: saline 96 % of control | dose: 200.0 mg/kg/injection, schedule: Q04DX002 (ip), vehicle: saline 105 % of control

ClC1(Cl)C2C=CC=CCC21 (stereo not drawn)
inactive: dose: 100.0 mg/kg/injection, schedule: Q01DX009 (ip), vehicle: other 103 % of control | dose: 100.0 mg/kg/injection, schedule: Q04DX003 (ip), vehicle: other 103 % of control | dose: 200.0 mg/kg/injection, schedule: Q01DX009 (ip), vehicle: other 97 % of control | dose: 200.0 mg/kg/injection, schedule: Q04DX003 (ip), vehicle: other 92 % of control | dose: 400.0 mg/kg/injection, schedule: Q01DX009 (ip), vehicle: other 92 % of control

N#CCN1C(=O)c2ccccc2C1=O
inactive: dose: 12.5 mg/kg/injection, schedule: Q01DX009 (ip), vehicle: Klucel (hydroxypropylcellulose) (HPC) 96 % of control | dose: 12.5 mg/kg/injection, schedule: Q04DX003 (ip), vehicle: Klucel (hydroxypropylcellulose) (HPC) 100 % of control | dose: 25.0 mg/kg/injection, schedule: Q01DX009 (ip), vehicle: Klucel (hydroxypropylcellulose) (HPC) 101 % of control | dose: 25.0 mg/kg/injection, schedule: Q04DX003 (ip), vehicle: Klucel (hydroxypropylcellulose) (HPC) 98 % of control | dose: 50.0 mg/kg/injection, schedule: Q04DX003 (ip), vehicle: Klucel (hydroxypropylcellulose) (HPC) 100 % of control | dose: 75.0 mg/kg/injection, schedule: Q01DX001 (ip), vehicle: other 107 % of control

C=C1C(=O)O[C@@H]2C[C@@]3(C)CCC[C@H](C)C3=C[C@H]12
inactive: [14] 112 % of control | [15] 98 % of control | [16] 102 % of control

C1=COC(C2NCCCN2)CC1 (stereo not drawn)
inactive: [14] 102 % of control | [15] 111 % of control | [16] 106 % of control

CCCCOC(=O)c1ccc2c(ccc[n+]2C)c1
inactive: dose: 75.0 mg/kg/injection, schedule: Q01DX001 (ip), vehicle: saline 95 % of control | dose: 75.0 mg/kg/injection, schedule: Q04DX003 (ip), vehicle: saline 112 % of control | dose: 150.0 mg/kg/injection, schedule: Q01DX001 (ip), vehicle: saline 101 % of control | dose: 150.0 mg/kg/injection, schedule: Q04DX003 (ip), vehicle: saline 105 % of control | dose: 300.0 mg/kg/injection, schedule: Q01DX001 (ip), vehicle: saline 100 % of control | dose: 300.0 mg/kg/injection, schedule: Q04DX003 (ip), vehicle: saline 96 % of control

O=c1ccc2ccccc2[nH]1.[Mn]
inactive: dose: 5.0 mg/kg/injection, schedule: Q01DX001 (ip), vehicle: carboxymethylcellulose (CMC) 95 % of control | dose: 10.0 mg/kg/injection, schedule: Q01DX001 (ip), vehicle: carboxymethylcellulose (CMC) 95 % of control | dose: 20.0 mg/kg/injection, schedule: Q01DX001 (ip), vehicle: carboxymethylcellulose (CMC) 97 % of control | dose: 40.0 mg/kg/injection, schedule: Q01DX001 (ip), vehicle: carboxymethylcellulose (CMC) 97 % of control

CCN(CC)CCC(=O)c1ccc2oc3ccccc3c2c1
inactive: dose: 12.0 mg/kg/injection, schedule: Q01DX001 (ip), vehicle: saline 100 % of control | dose: 25.0 mg/kg/injection, schedule: Q01DX001 (ip), vehicle: saline 90 % of control | dose: 50.0 mg/kg/injection, schedule: Q01DX001 (ip), vehicle: saline 103 % of control | [14] 113 % of control

Cc1ccc(NC(=O)Nc2cccc(Cl)c2C)cc1NC(=O)Nc1cccc(Cl)c1C
inactive: [11] 87 % of control | [8] 90 % of control | [12] 87 % of control | [9] 91 % of control | [13] 86 % of control | [10] 91 % of control

O=C(Nc1ccc(S(=O)(=O)NC2CCCCC2)cc1)OC(c1ccccc1)c1ccccc1
inactive: [14] 96 % of control | [15] 94 % of control | [16] 100 % of control
